Reference: patent US8198315B2, “Therapeutic substituted cyclic lactams” (Allergan, Inc., priority 2007, dated 2012)

Tests used:
EP2 [1] = target: T1, EP2 (Homo sapiens, UniProt P43116); test: EP2 binding (Ki)
Source text: (§1) U.S. patent application Ser. No. 11/553,143, filed on Oct. 26, 2006, incorporated by reference herein, describes the methods used to obtain the in vitro data in the table below.

hEP3A = target: T2, hEP3A (Homo sapiens, UniProt P43115); test: Other receptors functional assay, hEP3A; assay type: cell-based
T2 sequence (P43115 1-390): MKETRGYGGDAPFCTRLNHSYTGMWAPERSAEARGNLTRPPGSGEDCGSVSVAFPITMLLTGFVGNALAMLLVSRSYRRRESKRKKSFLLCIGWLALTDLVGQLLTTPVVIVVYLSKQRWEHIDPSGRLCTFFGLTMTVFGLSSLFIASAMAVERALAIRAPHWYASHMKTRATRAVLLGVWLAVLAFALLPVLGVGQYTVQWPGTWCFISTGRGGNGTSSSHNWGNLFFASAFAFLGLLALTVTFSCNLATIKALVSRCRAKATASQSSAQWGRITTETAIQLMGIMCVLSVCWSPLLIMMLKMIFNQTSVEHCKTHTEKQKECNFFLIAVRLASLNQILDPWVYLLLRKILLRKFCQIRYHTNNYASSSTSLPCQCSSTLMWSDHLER
Source text: as §1

hIP = hIP (Homo sapiens, UniProt P43119); test: Other receptors functional assay, hIP; assay type: cell-based
Chain of hIP (P43119 whole entry): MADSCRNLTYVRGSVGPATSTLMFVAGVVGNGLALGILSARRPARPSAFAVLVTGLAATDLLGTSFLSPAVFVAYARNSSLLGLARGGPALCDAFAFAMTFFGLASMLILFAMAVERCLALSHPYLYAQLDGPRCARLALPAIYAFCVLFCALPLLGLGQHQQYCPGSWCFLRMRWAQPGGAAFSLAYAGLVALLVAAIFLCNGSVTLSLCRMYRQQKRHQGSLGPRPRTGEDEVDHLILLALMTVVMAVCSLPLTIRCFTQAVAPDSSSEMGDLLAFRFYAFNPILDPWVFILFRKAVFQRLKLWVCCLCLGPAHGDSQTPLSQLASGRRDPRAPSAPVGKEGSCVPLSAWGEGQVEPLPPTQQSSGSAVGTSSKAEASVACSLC
Source text: as §1

EP2 [2] = target: T1, EP2; test: EP2 flipr assay; assay type: cell-based
Source text: as §1

hTP = target: T3, hTP (Homo sapiens, UniProt P21731); test: Other receptors functional assay, hTP; assay type: cell-based
T3 sequence (P21731 1-343): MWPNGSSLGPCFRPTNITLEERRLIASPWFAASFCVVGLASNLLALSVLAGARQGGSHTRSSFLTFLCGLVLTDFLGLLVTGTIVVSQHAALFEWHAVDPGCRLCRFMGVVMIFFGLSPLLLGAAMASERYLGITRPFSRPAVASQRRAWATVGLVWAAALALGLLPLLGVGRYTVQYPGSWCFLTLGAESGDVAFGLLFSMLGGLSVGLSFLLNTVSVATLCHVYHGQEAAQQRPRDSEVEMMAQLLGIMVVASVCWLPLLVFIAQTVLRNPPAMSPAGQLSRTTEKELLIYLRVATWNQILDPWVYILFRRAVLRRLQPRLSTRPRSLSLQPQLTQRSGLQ
Source text: as §1

hDP = target: T4, hDP (Homo sapiens, UniProt Q13258); test: Other receptors functional assay, hDP; assay type: cell-based
T4 sequence (Q13258 1-359): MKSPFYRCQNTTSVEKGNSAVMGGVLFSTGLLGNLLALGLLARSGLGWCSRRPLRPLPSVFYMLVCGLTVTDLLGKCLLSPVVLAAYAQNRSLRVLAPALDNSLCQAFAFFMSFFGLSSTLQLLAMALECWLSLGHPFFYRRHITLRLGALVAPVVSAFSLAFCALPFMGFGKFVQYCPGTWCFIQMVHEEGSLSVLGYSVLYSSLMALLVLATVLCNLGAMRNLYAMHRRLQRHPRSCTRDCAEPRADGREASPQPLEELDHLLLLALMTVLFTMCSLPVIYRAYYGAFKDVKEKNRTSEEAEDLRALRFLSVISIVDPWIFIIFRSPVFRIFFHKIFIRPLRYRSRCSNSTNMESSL
Source text: as §1

EP2 [3] = target: T1, EP2; test: EP2 cAMP assay; assay type: cell-based
Source text: as §1

EP4 [4] = target: T5, EP4 (Homo sapiens, UniProt P35408); test: EP4 binding (Ki)
T5 sequence (P35408 whole entry): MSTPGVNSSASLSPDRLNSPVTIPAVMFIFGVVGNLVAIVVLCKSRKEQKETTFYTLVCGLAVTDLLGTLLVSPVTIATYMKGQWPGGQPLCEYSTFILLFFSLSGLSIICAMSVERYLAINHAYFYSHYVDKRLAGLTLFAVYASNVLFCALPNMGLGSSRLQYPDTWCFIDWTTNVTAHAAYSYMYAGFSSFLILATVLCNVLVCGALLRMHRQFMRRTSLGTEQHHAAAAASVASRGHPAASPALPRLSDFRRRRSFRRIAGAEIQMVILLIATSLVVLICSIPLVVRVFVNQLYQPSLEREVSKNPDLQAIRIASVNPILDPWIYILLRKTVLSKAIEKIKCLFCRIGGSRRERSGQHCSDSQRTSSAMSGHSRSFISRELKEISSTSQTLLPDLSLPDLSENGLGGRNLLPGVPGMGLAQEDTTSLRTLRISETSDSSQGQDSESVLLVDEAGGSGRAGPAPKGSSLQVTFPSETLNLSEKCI
Source text: as §1

EP4 [5] = target: T5, EP4; test: EP4 flipr assay; assay type: cell-based; settings: read-out: EP4 data flip EC50
Source text: as §1

[6] = tested on: laser-induced hypertensive monkeys; test: Intraocular pressure in laser-induced hypertensive monkeys; assay type: in vivo, monkey; settings: 0.1%, one single day dose, at 6 h
Experimental: (§2) U.S. Pat. No. 7,091,231 describes the methods used to carry out the tests reported below.
(§3) 5-[(R)-1-((S)-3-Hydroxyoctyl)-5-oxopyrrolidin-2-ylmethoxymethyl]-thiophene-2-carboxylic isopropyl ester was tested in normotensive dogs at 2 concentrations, dosing once daily for 5 days. At 0.1%, the maximum intraocular pressure (TOP) decrease from baseline was 8 mmHg (47%) at 78 h; the maximum ocular surface hyperemia (OSH) score was 2.25 at 50 h. At 0.01%, the maximum TOP decrease from baseline was 6.1 mmHg (35%) at 78 h; the maximum OSH score was 1.7 at 30 h. This compound was also tested in laser-induced hypertensive monkeys, using one single day dose. At 0.1%, the maximum TOP decrease from baseline was 17 mmHg (48%) at 6 h.

normotensive dogs [7] = test: Intraocular pressure in normotensive dogs; assay type: in vivo, dog; settings: once daily for 5 days, at 78 h
Experimental: as §2, §3

normotensive dogs [8] = test: Ocular surface hyperemia in normotensive dogs; assay type: in vivo, dog; settings: once daily for 5 days
Experimental: as §2, §3

T1 sequence (P43116 whole entry): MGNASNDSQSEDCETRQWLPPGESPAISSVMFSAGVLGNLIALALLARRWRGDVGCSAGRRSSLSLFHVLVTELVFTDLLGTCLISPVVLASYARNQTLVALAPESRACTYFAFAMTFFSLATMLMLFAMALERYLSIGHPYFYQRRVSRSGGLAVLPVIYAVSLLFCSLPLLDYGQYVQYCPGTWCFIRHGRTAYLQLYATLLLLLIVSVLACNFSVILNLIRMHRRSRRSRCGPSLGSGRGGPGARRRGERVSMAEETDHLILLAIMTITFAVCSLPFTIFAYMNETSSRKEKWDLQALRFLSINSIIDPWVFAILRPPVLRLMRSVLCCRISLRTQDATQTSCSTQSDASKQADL

| Compound | Ki (EP2 [1]) [µM] | EC50 (hEP3A) [µM] | EC50 (hIP) [µM] | EC50 (EP2 [2]) [µM] | EC50 (hTP) [µM] | EC50 (hDP) [µM] | EC50 (EP2 [3]) [µM] | Ki (EP4 [4]) [µM] | EC50 (EP4 [5]) [µM] | maximum ocular surface hyperemia (OSH) score (normotensive dogs [8]; 0.01%, at 30 h) | maximum ocular surface hyperemia (OSH) score (normotensive dogs [8]; 0.1%, at 50 h) | maximum intraocular pressure decrease from baseline [6] [mmHg] | maximum intraocular pressure decrease from baseline (percent) [6] [%] | maximum intraocular pressure decrease from baseline (normotensive dogs [7]; 0.01%) [mmHg] | maximum intraocular pressure decrease from baseline (percent) (normotensive dogs [7]; 0.01%) [%] | maximum intraocular pressure decrease from baseline (normotensive dogs [7]; 0.1%) [mmHg] | maximum intraocular pressure decrease from baseline (percent) (normotensive dogs [7]; 0.1%) [%] |
| --- | --- | --- | --- | --- | --- | --- | --- | --- | --- | --- | --- | --- | --- | --- | --- | --- | --- |
| CCCC1(C(O)CCCN2C(=O)CC[C@@H]2COCc2ccc(C(=O)O)s2)CCC1 (mixture of isomers) [Example 4, 5-{(R)-1-[4-Hydroxy-4-(1-propylcyclobutyl)-butyl]-5-oxopyrrolidin-2-ylmethoxymethyl}-thiophene-2-carboxylic acid] | 1.2 | > 10 | > 10 | > 10 | > 10 | 0.213 | 0.02 | – | – | – | – | – | – | – | – | – | – |
| CCCCC[C@H](O)CCN1C(=O)CC[C@@H]1COCc1ccc(C(=O)NCC)s1 [Example 3, 5-[(R)-1-((S)-3-Hydroxy-octyl)-5-oxopyrrolidin-2-ylmethoxymethyl]-thiophene-2-carboxylic acid ethylamide] | – | – | > 10 | – | > 10 | > 10 | – | – | – | – | – | – | – | – | – | – | – |
| CCCCC[C@H](O)CCN1C(=O)CC[C@@H]1COCc1ccc(C(=O)OC(C)C)s1 [Example 5, 5-[(R)-1-((S)-3-Hydroxyoctyl)-5-oxopyrrolidin-2-ylmethoxymethyl]-thiophene-2-carboxylic isopropyl ester] | – | – | – | – | – | – | – | – | – | 1.7 | 2.25 | 17 | 48 | 6.1 | 35 | 8 | 47 |

Further lines, with some results ahead:

| Ki (EP2 [1]) [µM] | EC50 (hEP3A) [µM] | EC50 (hIP) [µM] | EC50 (EP2 [2]) [µM] | EC50 (hTP) [µM] | EC50 (hDP) [µM] | EC50 (EP2 [3]) [µM] | Ki (EP4 [4]) [µM] | EC50 (EP4 [5]) [µM] | maximum ocular surface hyperemia (OSH) score (normotensive dogs [8]; 0.01%, at 30 h) | maximum ocular surface hyperemia (OSH) score (normotensive dogs [8]; 0.1%, at 50 h) | Compound | maximum intraocular pressure decrease from baseline [6] [mmHg] | maximum intraocular pressure decrease from baseline (percent) [6] [%] | maximum intraocular pressure decrease from baseline (normotensive dogs [7]; 0.01%) [mmHg] | maximum intraocular pressure decrease from baseline (percent) (normotensive dogs [7]; 0.01%) [%] | maximum intraocular pressure decrease from baseline (normotensive dogs [7]; 0.1%) [mmHg] | maximum intraocular pressure decrease from baseline (percent) (normotensive dogs [7]; 0.1%) [%] |
| --- | --- | --- | --- | --- | --- | --- | --- | --- | --- | --- | --- | --- | --- | --- | --- | --- | --- |
| 2.88 | 2.22 | – | 1.57 | 4.89 | 0.0068 | 0.019 | 8.72 | 7.85 | – | – | CCCCC[C@H](O)CCN1C(=O)CC[C@@H]1COCc1ccc(C(=O)O)s1 [Example 1, 5-[(R)-1-((S)-3-Hydroxyoctyl)-5-oxopyrrolidin-2-ylmethoxymethyl]-thiophene-2-carboxylic acid] | – | – | – | – | – | – |
| – | 2.03 | > 10 | – | > 10 | 0.194 | – | – | – | – | – | CCCCC[C@H](O)CCN1C(=O)CC[C@@H]1COCc1ccc(C(=O)NS(C)(=O)=O)s1 [Example 2, N-{5-[(R)-1-((S)-3-Hydroxy-octyl)-5-oxopyrrolidin-2-ylmethoxymethyl]-thiophene-2-carbonyl}-methanesulfonamide] | – | – | – | – | – | – |
